Results published in PubChem BioAssay AID2060484 (Molecular Pharmacology Branch, DTP, NCI, 2025).
pIC50: −log10 of the molar value.

Test system: SUM149PT spheroids with HUVEC/MSC, viability
Test: Anticancer human tumor SUM149PT cell line growth inhibition [GQUAD];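 further: spheroids exposed to drugs for seven days before readout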;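 on viability, T/C: percent viability relative to DMSO vehicle control taken as 100%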
Conditions: for pIC50: curve of first compound; for viability, T/C: stronger effect = lower value
How it was run: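 Viability of tumor cells grown as complex spheroids with endothelial and stromal cells, exposed to drug combinations. Top concentration at or near clinical Cmax (else 10 microM), diluted in half-log increments.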

[1] = second compound 0.0316 µM, first compound 0.0316 µM
[2] = second compound 0.0316 µM, first compound 0.1 µM
[3] = second compound 0.0316 µM, first compound 0.316 µM
[4] = second compound 0.0316 µM, first compound 1 µM
[5] = second compound 0.0316 µM, first compound 3.16 µM
[6] = second compound 0.0316 µM, first compound 10 µM
[7] = second compound 0.1 µM, first compound 0.0316 µM
[8] = second compound 0.1 µM, first compound 0.1 µM
[9] = second compound 0.1 µM, first compound 0.316 µM
[10] = second compound 0.1 µM, first compound 1 µM
[11] = second compound 0.1 µM, first compound 3.16 µM
[12] = second compound 0.1 µM, first compound 10 µM
[13] = second compound 0.316 µM, first compound 0.0316 µM
[14] = second compound 0.316 µM, first compound 0.1 µM
[15] = second compound 0.316 µM, first compound 0.316 µM
[16] = second compound 0.316 µM, first compound 1 µM
[17] = second compound 0.316 µM, first compound 3.16 µM
[18] = second compound 0.316 µM, first compound 10 µM
[19] = second compound 1 µM, first compound 0.0316 µM
[20] = second compound 1 µM, first compound 0.1 µM
[21] = second compound 1 µM, first compound 0.316 µM
[22] = second compound 1 µM, first compound 1 µM
[23] = second compound 1 µM, first compound 3.16 µM
[24] = second compound 1 µM, first compound 10 µM
[25] = second compound 3.16 µM, first compound 0.0316 µM
[26] = second compound 3.16 µM, first compound 0.1 µM
[27] = second compound 3.16 µM, first compound 0.316 µM
[28] = second compound 3.16 µM, first compound 1 µM
[29] = second compound 3.16 µM, first compound 3.16 µM
[30] = second compound 3.16 µM, first compound 10 µM
[31] = second compound 10 µM, first compound 0.0316 µM
[32] = second compound 10 µM, first compound 0.1 µM
[33] = second compound 10 µM, first compound 0.316 µM
[34] = second compound 10 µM, first compound 1 µM
[35] = second compound 10 µM, first compound 3.16 µM
[36] = second compound 10 µM, first compound 10 µM

CC1COCCN1c1cc(-c2ccnn2C)c2ccnc(-c3ccn[nH]3)c2n1 (centres undefined) + Cc1[nH]c2ccc(F)cc2c1-c1nc2c3cccnc3c3ncccc3c2[nH]1
pIC50 (second compound 0.0316 µM): 7.05
pIC50 (second compound 0.1 µM): 7.02
pIC50 (second compound 0.316 µM): 6.97
pIC50 (second compound 1 µM): 6.92
pIC50 (second compound 3.16 µM): 7.01
pIC50 (second compound 10 µM): 7.03
viability, T/C [1]: 90.7%
viability, T/C [2]: 45.6%
viability, T/C [3]: 25.8%
viability, T/C [4]: 26.4%
viability, T/C [5]: 27%
viability, T/C [6]: 26.3%
viability, T/C [7]: 82.7%
viability, T/C [8]: 48.6%
viability, T/C [9]: 25.1%
viability, T/C [10]: 21.8%
viability, T/C [11]: 28.6%
viability, T/C [12]: 25.7%
viability, T/C [13]: 95.1%
viability, T/C [14]: 51.4%
viability, T/C [15]: 23.3%
viability, T/C [16]: 23.9%
viability, T/C [17]: 25.8%
viability, T/C [18]: 25.3%
viability, T/C [19]: 92.4%
viability, T/C [20]: 54.5%
viability, T/C [21]: 26.4%
viability, T/C [22]: 26.4%
viability, T/C [23]: 24.8%
viability, T/C [24]: 26.6%
viability, T/C [25]: 98.2%
viability, T/C [26]: 48.8%
viability, T/C [27]: 25.4%
viability, T/C [28]: 26.2%
viability, T/C [29]: 25.7%
viability, T/C [30]: 22.5%
viability, T/C [31]: 92.7%
viability, T/C [32]: 47.6%
viability, T/C [33]: 24.2%
viability, T/C [34]: 27.4%
viability, T/C [35]: 23%
viability, T/C [36]: 24.1%

Nc1ccn(C2OC(CO)C(O)C2(F)F)c(=O)n1 (centres undefined) + CN(C)c1ccc(Nc2c3ccc(NC(=O)CCN4CCCC4)cc3nc3cc(NC(=O)CCN4CCCC4)ccc23)cc1
pIC50 (second compound 0.0316 µM): 6.96
pIC50 (second compound 0.1 µM): 6.76
pIC50 (second compound 0.316 µM): 6.89
pIC50 (second compound 1 µM): 7.02
pIC50 (second compound 3.16 µM): 7.20
pIC50 (second compound 10 µM): 7.38
viability, T/C [1]: 87.9%
viability, T/C [2]: 51%
viability, T/C [3]: 34.6%
viability, T/C [4]: 27.2%
viability, T/C [5]: 25.9%
viability, T/C [6]: 20.8%
viability, T/C [7]: 80.2%
viability, T/C [8]: 59.7%
viability, T/C [9]: 39.6%
viability, T/C [10]: 26.7%
viability, T/C [11]: 23.7%
viability, T/C [12]: 20.8%
viability, T/C [13]: 68.1%
viability, T/C [14]: 55.3%
viability, T/C [15]: 34.7%
viability, T/C [16]: 26.6%
viability, T/C [17]: 25.6%
viability, T/C [18]: 15.8%
viability, T/C [19]: 65.8%
viability, T/C [20]: 51.2%
viability, T/C [21]: 32.7%
viability, T/C [22]: 27.9%
viability, T/C [23]: 21.4%
viability, T/C [24]: 16.5%
viability, T/C [25]: 65.4%
viability, T/C [26]: 39.8%
viability, T/C [27]: 24.3%
viability, T/C [28]: 21.6%
viability, T/C [29]: 17.8%
viability, T/C [30]: 14.8%
viability, T/C [31]: 55.1%
viability, T/C [32]: 35.7%
viability, T/C [33]: 25%
viability, T/C [34]: 20.9%
viability, T/C [35]: 18.8%
viability, T/C [36]: 13.4%
